Source: paper PMC9124818 (Pharmacology Research & Perspectives, 2022)
Like-named read-outs stand apart in the source and are kept apart here.

Experiments:
[1] = target: T1, CYP1A2 (Homo sapiens, UniProt P05177); assay: Direct CYP450 inhibition in human liver microsomes (phenacetin O-dealkylation)
T1 sequence (P05177 1-516): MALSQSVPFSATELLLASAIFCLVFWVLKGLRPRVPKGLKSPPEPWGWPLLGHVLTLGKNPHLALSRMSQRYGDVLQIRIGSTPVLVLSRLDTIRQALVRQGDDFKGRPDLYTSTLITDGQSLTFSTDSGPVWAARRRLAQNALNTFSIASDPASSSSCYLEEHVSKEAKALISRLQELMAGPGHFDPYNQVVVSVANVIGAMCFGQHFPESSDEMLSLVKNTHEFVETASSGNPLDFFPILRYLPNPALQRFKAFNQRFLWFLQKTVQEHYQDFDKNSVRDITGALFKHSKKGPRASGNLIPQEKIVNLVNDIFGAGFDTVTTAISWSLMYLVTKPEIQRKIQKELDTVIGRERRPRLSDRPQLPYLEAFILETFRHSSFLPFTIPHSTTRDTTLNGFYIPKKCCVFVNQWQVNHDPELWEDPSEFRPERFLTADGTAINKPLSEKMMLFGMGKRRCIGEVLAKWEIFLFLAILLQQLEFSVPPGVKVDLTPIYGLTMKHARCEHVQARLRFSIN
From the text: (§1) A mixed‐gender pool of 200 individual human liver microsomal samples was used.
(§2) This LIMS utilizes the Levenberg-Marquardt algorithm to perform nonlinear regression fitting of the data to the following 4-parameter sigmoidal-logistic IC50 equation:
(§3) As percent of control values are utilized, the Min is set to 0 and the Max is set to 100 (or other values, as appropriate). […] Therefore, when an IC50 value falls outside the concentration range studied, the IC50 values are reported to be greater than the highest concentrations of test article evaluated.

[2] = target: T2, P‐gp (Homo sapiens, UniProt P08183); assay: Transporter inhibition, bidirectional permeability of digoxin in Caco-2 cells; type: in vitro ADME
T2 construct: host or cells: Caco-2
T2 sequence (P08183 whole entry): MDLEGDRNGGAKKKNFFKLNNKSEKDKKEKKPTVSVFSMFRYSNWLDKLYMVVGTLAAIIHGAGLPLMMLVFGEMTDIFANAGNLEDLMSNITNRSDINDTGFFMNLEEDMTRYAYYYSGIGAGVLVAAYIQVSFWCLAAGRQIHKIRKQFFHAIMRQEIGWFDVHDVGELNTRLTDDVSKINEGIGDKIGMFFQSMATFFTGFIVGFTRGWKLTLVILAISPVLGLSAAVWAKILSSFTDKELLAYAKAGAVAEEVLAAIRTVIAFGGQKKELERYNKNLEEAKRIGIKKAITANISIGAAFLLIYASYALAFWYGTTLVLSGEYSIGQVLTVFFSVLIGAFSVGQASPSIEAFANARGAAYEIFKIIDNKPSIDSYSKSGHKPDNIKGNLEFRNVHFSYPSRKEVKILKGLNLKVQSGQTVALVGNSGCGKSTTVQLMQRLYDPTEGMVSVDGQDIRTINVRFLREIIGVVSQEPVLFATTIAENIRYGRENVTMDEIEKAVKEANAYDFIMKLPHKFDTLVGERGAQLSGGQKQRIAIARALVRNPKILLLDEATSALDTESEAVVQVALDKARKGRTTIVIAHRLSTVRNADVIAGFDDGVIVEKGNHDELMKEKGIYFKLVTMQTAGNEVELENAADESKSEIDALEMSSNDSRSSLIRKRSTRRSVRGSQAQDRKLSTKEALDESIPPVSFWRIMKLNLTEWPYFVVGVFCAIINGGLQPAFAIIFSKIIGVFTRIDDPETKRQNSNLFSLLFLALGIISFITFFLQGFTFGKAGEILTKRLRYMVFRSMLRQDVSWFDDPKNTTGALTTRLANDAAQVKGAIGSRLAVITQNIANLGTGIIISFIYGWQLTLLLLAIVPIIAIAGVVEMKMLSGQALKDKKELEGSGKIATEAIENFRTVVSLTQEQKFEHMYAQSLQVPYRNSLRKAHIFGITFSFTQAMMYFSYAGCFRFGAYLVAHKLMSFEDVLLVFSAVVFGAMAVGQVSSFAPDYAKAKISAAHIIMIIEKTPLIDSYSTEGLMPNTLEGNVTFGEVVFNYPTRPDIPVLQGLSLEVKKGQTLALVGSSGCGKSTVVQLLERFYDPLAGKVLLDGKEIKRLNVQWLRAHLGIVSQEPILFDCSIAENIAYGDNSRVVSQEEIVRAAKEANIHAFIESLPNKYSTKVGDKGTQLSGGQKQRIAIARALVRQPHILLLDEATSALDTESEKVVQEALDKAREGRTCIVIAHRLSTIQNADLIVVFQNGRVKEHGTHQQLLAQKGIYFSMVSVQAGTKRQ
Procedure: The test compound (FFA or nFFA) or the positive control substrate ([…], respectively) was added to the donor chamber. […] Cells were then washed, lysed with scintillation cocktail, and analyzed for the probe substrate with a MicroBeta scintillation counter (PerkinElmer, Hopkinton, MA). Transcellular transporter assay conditions are described in Supplemental Table 1. Calculation of IC50 values was based on bidirectional permeability of probe substrate with and without the inhibitor in MDCKII cells expressing BCRP and in Caco‐2 cells expressing P‐gp, and transporter‐dependent uptake of probe substrate in HEK293 cells expressing all other transporters (Supplemental Table 1).
The net flux for human epithelial colorectal adenocarcinoma cells (Caco-2; P-gp) and MDCKII-BCRP inhibition determination was calculated according to the equation: […]

[3] = target: CYP2C19 (Homo sapiens, UniProt P33261); assay: Direct CYP450 inhibition in human liver microsomes (S-mephenytoin 4'-hydroxylation); settings: for Inhibition (%): FFA up to 60 µM, nFFA up to 100 µM; for Basic model: R1: R1 = 1 + (Imax,u/Ki,u)
Sequence of CYP2C19 (P33261 whole entry): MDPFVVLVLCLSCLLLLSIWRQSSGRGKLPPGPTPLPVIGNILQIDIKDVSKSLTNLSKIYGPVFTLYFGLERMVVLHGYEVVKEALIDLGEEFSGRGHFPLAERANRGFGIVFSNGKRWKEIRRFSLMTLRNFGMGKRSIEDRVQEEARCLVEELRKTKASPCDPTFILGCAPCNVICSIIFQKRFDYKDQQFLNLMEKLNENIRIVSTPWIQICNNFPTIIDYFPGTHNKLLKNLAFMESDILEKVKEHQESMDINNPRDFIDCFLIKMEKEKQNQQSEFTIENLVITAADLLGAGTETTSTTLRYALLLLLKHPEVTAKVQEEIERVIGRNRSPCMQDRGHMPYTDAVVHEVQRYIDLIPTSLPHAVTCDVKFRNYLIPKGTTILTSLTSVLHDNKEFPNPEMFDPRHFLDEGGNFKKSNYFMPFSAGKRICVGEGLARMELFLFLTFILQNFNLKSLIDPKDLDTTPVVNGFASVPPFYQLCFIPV
From the text: as §1, §2, §3

[4] = tested on: CYP3A4/5; assay: Direct CYP450 inhibition in human liver microsomes (midazolam 1'-hydroxylation; testosterone 6β-hydroxylation); settings: for Basic model: R1,gut: R1,gut = 1 + (Igut/Ki,u); for Basic model: R1: R1 = 1 + (Imax,u/Ki,u)
From the text: as §1, §2, §3

[5] = tested on: CYP3A4 mRNA; assay: in vitro; settings: for EC50 / Basic kinetic model: Emax (fold): ± standard error; for Fold‐change method: Fold change: highest dose tested (40 µM fenfluramine, 50 µM norfenfluramine); for Fold‐change method: % of control: percent of positive control induction of mRNA; for Basic kinetic model: Emax (fold): fit of fold‐change −1 values
Procedure: Cells were then harvested to isolate RNA, which was analyzed by quantitative reverse transcription‐polymerase chain reaction (qRT‐PCR) for induction of CYP1A2, CYP2B6, and CYP3A4 mRNA levels. Total RNA was phase extracted with TRIzol followed by purification with an RNeasy Mini Kit (Qiagen Inc., Germantown, MD). Quantitative PCR was performed in triplicate with a 7900HT Fast Real Time PCR System, an Applied Biosystems Universal Master Mix, and TaqMan® Gene Expression Assays. The quantity of target cDNA relative to control cDNA (GAPDH) was determined by the ΔΔCT method (Applied Biosystems User Bulletin #2). Relative quantitation measures the change in mRNA expression in a test sample relative to that in the control sample (i.e., DMSO). This method assumes that the efficiency of target amplification and the efficiency of endogenous control amplification are approximately equal.
mRNA assessment was conducted using a quantitative reverse transcription-polymerase chain reaction (qRT-PCR) according to the Applied Biosystems protocol. Each PCR was performed in triplicate. A Primer Mix was prepared for each Gene Expression assay. A typical Primer Mix contained TaqMan Fast Advanced Master Mix (1X), Gene Expression Assay (1X, 900 nM forward and reverse primers) and ribonuclease (RNase)-free water. The Reaction Mix was prepared by adding the Primer Mix to cDNA. A percentage of samples (no less than 10%) included NACs. […] The relative quantity of the target cDNA compared with that of the control cDNA (GAPDH) was determined by the ΔΔCt method (Applied Biosystems User Bulletin #2). Relative quantitation measures the change in mRNA expression in a test sample relative to that in a control sample (eg, dimethyl sulfoxide [DMSO]). This method assumes that the efficiency of the target amplification and the efficiency of the endogenous control amplification are approximately equal.
This software analyzes relative gene expression using the comparative Ct method (ΔΔCt), which relates the PCR signal of the target transcript to the PCR signal of the target in an untreated control. Both the treated sample and the untreated control signals are normalized to the endogenous control (GAPDH), for which expression is not affected by treatment and expression is constant throughout the tissue being tested.
The level of mRNA expression relative to the positive control was calculated as follows: […]

[6] = direct inhibition, substrate S-mephenytoin

`CCNC(C)Cc1cccc(C(F)(F)F)c1` (racemic) [FFA, (RS)‐ethyl(α‐methyl‐3‐trifluoromethylphenethyl)amine, reference compound] was tested, and the IC50 [1] was > 60 µM, the “Basic model: Potential for clinical inhibition” value ([1]; substrate phenacetin) was “No (Potential to inhibit if R1 ≥ 1.02)” and the “Static mechanistic model: Potential for clinical inhibition” value ([1]; substrate phenacetin) was “No (Potential to inhibit if AUCR ≥ 1.25)”. The IC50 [2] was > 100 µM, the IC50 [3] was > 60 µM and the “Inhibition (%)” value [3, 6] was 14%. The “Basic model: Potential for clinical inhibition” value ([3]; substrate S-mephenytoin) was “No (Potential to inhibit if R1 ≥ 1.02)”, the “Static mechanistic model: Potential for clinical inhibition” value ([3]; substrate S-mephenytoin) was “No (Potential to inhibit if AUCR ≥ 1.25)” and the “Basic model: R1” value ([3]; substrate S-mephenytoin) was 1.01. For the same compound, the IC50 ([4]; both, human, pooled human liver microsomes, pH 7.4, probe midazolam (1'-hydroxylation)) was > 600 µM, the IC50 ([4]; both, human, pooled human liver microsomes, pH 7.4, probe testosterone (6β-hydroxylation)) was > 600 µM and the “Basic model: Potential for clinical inhibition (R1)” value ([4]; substrate midazolam) was “No No ^b (Potential to inhibit if R1 ≥ 1.02)”. For the same compound, the “Basic model: Potential for clinical inhibition (R1,gut)” value ([4]; substrate midazolam) was “No No ^b (Potential to inhibit if R1,gut ≥ 11)”, the “Static mechanistic model: Potential for clinical inhibition” value ([4]; substrate midazolam) was “No (Potential to inhibit if AUCR ≥ 1.25)” and the “Basic model: R1,gut” value ([4]; substrate midazolam) was “NC R1,gut = 1.78”. The “Basic model: Potential for clinical inhibition (R1)” value ([4]; substrate testosterone) was “No No ^b (Potential to inhibit if R1 ≥ 1.02)”, the “Basic model: Potential for clinical inhibition (R1,gut)” value ([4]; substrate testosterone) was “No No ^b (Potential to inhibit if R1,gut ≥ 11)” and the “Static mechanistic model: Potential for clinical inhibition” value ([4]; substrate testosterone) was “No (Potential to inhibit if AUCR ≥ 1.25)”. For the same compound, the “Basic model: R1,gut” value ([4]; substrate testosterone) was 1.81, the “Basic model: R1” value ([4]; substrate testosterone) was 1.00 and the “Static mechanistic model: Potential to induce” value [5] was “No (key: Yes: AUCR <0.8 to denote induction; No: AUCR <0.8 to denote induction)”. The EC50 ([5]; human, Basic kinetic model: EC50, hepatocytes HC7‐8) was 8.53 ± 4.3 µM, the EC50 ([5]; human, Basic kinetic model: EC50, hepatocytes HC10‐8) was 20.4 ± 1.9 µM and the EC50 ([5]; human, Basic kinetic model: EC50, hepatocytes HC10‐10) was 9.05 ± 3.6 µM. For the same compound, the “CYP3A4 induction (abstract)” value ([5]; human, hepatocytes) was 1.9-3.0 fold.

`CC(N)Cc1cccc(C(F)(F)F)c1.Cl` (centres unmarked) [nFFA, [1‐(3‐trifluoromethyl)phenyl]propan‐2‐amine hydrochloride] was tested, and the IC50 ([1]; direct inhibition, human liver microsomes, substrate phenacetin) was > 100 µM, the “Basic model: Potential for clinical inhibition” value ([1]; substrate phenacetin) was “No (Potential to inhibit if R1 ≥ 1.02)” and the “Static mechanistic model: Potential for clinical inhibition” value ([1]; substrate phenacetin) was “No (Potential to inhibit if AUCR ≥ 1.25)”. For the same compound, the IC50 ([2]; Caco-2, probe digoxin 10 µM, read-out: IC50) was > 50 µM, the IC50 ([3]; direct inhibition, human liver microsomes, substrate S-mephenytoin) was > 100 µM and the “Inhibition (%)” value [3, 6] was 2.9%. For the same compound, the “Basic model: Potential for clinical inhibition” value ([3]; substrate S-mephenytoin) was “No (Potential to inhibit if R1 ≥ 1.02)”, the “Static mechanistic model: Potential for clinical inhibition” value ([3]; substrate S-mephenytoin) was “No (Potential to inhibit if AUCR ≥ 1.25)” and the “Basic model: R1” value ([3]; substrate S-mephenytoin) was 1.00. The IC50 ([4]; direct inhibition, human liver microsomes, substrate midazolam) was > 100 µM, the IC50 ([4]; direct inhibition, human liver microsomes, substrate testosterone) was > 100 µM and the “Basic model: Potential for clinical inhibition (R1)” value ([4]; substrate midazolam) was “No (Potential to inhibit if R1 ≥ 1.02)”. For the same compound, the “Static mechanistic model: Potential for clinical inhibition” value ([4]; substrate midazolam) was “No (Potential to inhibit if AUCR ≥ 1.25)”, the “Basic model: Potential for clinical inhibition (R1)” value ([4]; substrate testosterone) was “No (Potential to inhibit if R1 ≥ 1.02)” and the “Static mechanistic model: Potential for clinical inhibition” value ([4]; substrate testosterone) was “No (Potential to inhibit if AUCR ≥ 1.25)”. The “Basic model: R1” value ([4]; substrate testosterone) was 1.00, the “Basic kinetic model: Potential to induce” value ([5]; hepatocytes HC7‐8) was “Yes” and the “Basic kinetic model: R3” value ([5]; hepatocytes HC7‐8) was 0.79. The “Fold‐change method: Potential to induce” value ([5]; hepatocytes HC7‐8) was “Yes”, the “Static mechanistic model: Potential to induce” value ([5]; hepatocytes HC7‐8) was “No (AUCR <0.8 to denote induction)” and the “Fold‐change method: Fold change” value ([5]; hepatocytes HC7‐8) was 4.91 fold. The “Fold‐change method: % of control” value ([5]; hepatocytes HC7‐8) was 3.68%, the “Basic kinetic model: Emax (fold)” value ([5]; hepatocytes HC7‐8) was 3.92 ± 0.048 fold and the “Basic kinetic model: Potential to induce” value ([5]; hepatocytes HC10‐8) was “No”. For the same compound, the “Basic kinetic model: R3” value ([5]; hepatocytes HC10‐8) was 0.86, the “Fold‐change method: Potential to induce” value ([5]; hepatocytes HC10‐8) was “Yes” and the “Static mechanistic model: Potential to induce” value ([5]; hepatocytes HC10‐8) was “No (AUCR <0.8 to denote induction)”. The “Fold‐change method: Fold change” value ([5]; hepatocytes HC10‐8) was 5.75 fold, the “Fold‐change method: % of control” value ([5]; hepatocytes HC10‐8) was 15.30% and the “Basic kinetic model: Emax (fold)” value ([5]; hepatocytes HC10‐8) was 6.95 ± 1.0 fold. For the same compound, the “Basic kinetic model: Potential to induce” value ([5]; hepatocytes HC10‐10) was “No”, the “Basic kinetic model: R3” value ([5]; hepatocytes HC10‐10) was 0.84 and the “Fold‐change method: Potential to induce” value ([5]; hepatocytes HC10‐10) was “Yes”. For the same compound, the “Static mechanistic model: Potential to induce” value ([5]; hepatocytes HC10‐10) was “No (AUCR <0.8 to denote induction)”, the “Fold‐change method: Fold change” value ([5]; hepatocytes HC10‐10) was 4.57 fold and the “Fold‐change method: % of control” value ([5]; hepatocytes HC10‐10) was 4.85%. For the same compound, the “Basic kinetic model: Emax (fold)” value ([5]; hepatocytes HC10‐10) was 3.61 ± 0.40 fold, the EC50 ([5]; read-out: Basic kinetic model: EC50, hepatocytes HC7‐8) was 12.9 ± 0.38 µM and the EC50 ([5]; read-out: Basic kinetic model: EC50, hepatocytes HC10‐8) was 37.8 ± 5.6 µM. The EC50 ([5]; read-out: Basic kinetic model: EC50, hepatocytes HC10‐10) was 17.1 ± 3.9 µM.
